Like-named read-outs stand apart in the source and are kept apart here.

One data set is described as follows: in vitro. The conditions noted are these: African green monkey. How it is done:
(§1) The assay method is available in the Supinfo S1.
(§2) African green monkey kidney epithelial (Vero) cells (Cellonex, South Africa) were cultured and the basal cytotoxicity of the synthesized compounds with antileishmanial and/or anticancer activity was evaluated using the resazurin assay, as described in Mangwegape et al. ^4 Emetine served as the standard cytotoxic drug. Further use of reference drugs, controls, data analysis, calculations and IC50 determinations were identical to that of the antileishmanial assay.

Data set [1] has as its system L. donovani strain 1S promastigotes. Put plainly: Antipromastigote assay (resazurin). The data set is classed as cell-based. Particulars: L. donovani 1S, read-out: 1S IC50 ± SD, Promastigote. How it is done: (§3) The antipromastigote activity of synthesized compounds was evaluated as described previously by Mangwegape et al. ([2021]) using three strains of L. donovani (1S (MHOM/SD/62/1S) and 9515 (MHOM/IN/95/9515)) and L. major (IR‐173 [MHOM/IR/−173]). The assay method is available in the Supinfo S1.
(§4) The antipromastigote activity of synthesized compounds was evaluated using a modified, resazurin-based method of Kulshrestha et al. ^2 and Siqueira-Neto et al. ^3 and on three Leishmania strains. Leishmania donovani (strains 1S (MHOM/SD/62/1S) and 9515 (MHOM/IN/95/9515)) and L. major (strain IR-173 (MHOM/IR/-173)) promastigotes were cultured in M199 with Hank's salts and 0.68 mM L-glutamine (Sigma Aldrich) supplemented with 50 U/mL Penicillin/Streptomycin solution (Lonza), 4.2 mM sodium bicarbonate, 25 mM Hepes, 10% fetal bovine serum, 0.25% hemin, 0.1% biotin, and 10 mM adenine (Sigma Aldrich) and the pH adjusted to 7.3 – 7.4. The promastigotes were maintained at 25 °C.
(§5) Amphothericin B (10 μM) served as the standard drug and growth medium without parasites served as the blank. The plates were incubated for 48 hours at 25 °C in humidified atmosphere. After incubation, 50 μL of resazurin solution (0.01% in PBS) was added to each well and the plates were further incubated at 25 °C in the dark for 24 hours. Absorbance was measured at 570 nm and 600 nm using the Thermofisher Scientific GO Multiscan plate reader. Data analysis was performed for each biological replicate using SkanIt 4.0 Research Edition software. Background absorbance of resazurin (600 nm) was subtracted from the absorbance values of resorufin (570 nm). The mean absorbance calculated and the percentage growth inhibition and cell viability were determined by the following equations: […]
(§6) The IC50 and Z-score were determined for each compound’s three biological replicates using the cell viability % values and GraphPad Prism 5. The mean IC50 of the biological replicates with standard deviation (SD) served as the final IC50 of each compound.

Data set [2] concerns L. major strain IR‐173 promastigotes. The data set is described as follows: Antipromastigote assay (resazurin). Type of data set: cell-based. Particulars: L. major IR‐173, read-out: Antileishmanial activity, IC50 ± SD, Promastigote. On the procedure:
as §3, §4, §5, §6

In data set [3] the test system is L. donovani strain 1S amastigotes. The data set is described as follows: Anti-amastigote assay (intramacrophage, THP-1 host, resazurin). The conditions noted are these: for IC50: L. donovani 1S, read-out: 1S IC50 ± SD, Amastigote. The data set is classed as cell-based. How it is done:
(§7) The activities of synthesized compounds against the intramacrophage parasites of the three Leishmania strains were evaluated using a modified, resazurin‐based method (Jain et al., [2012]; Njanpa et al., [2021]). Suspension cultures of human acute monocytic leukemia (THP‐1) cells were maintained in RPMI‐1640 medium (Sigma Aldrich) supplemented with 10% FBS and 1% penicillin–streptomycin, at 37°C and 5% CO2 in a humidified atmosphere. Duplicate 96‐well plates (for respective anti‐amastigote and cytotoxicity assays) were seeded with 200 μl of a 2.5 × 10^5 cells/ml suspension treated with 25 ng/ml phorbol 12‐myristate 13‐acetate (PMA), followed by 48‐h incubation to promote differentiation into adherent macrophages.
(§8) For the anti‐amastigote assay, differentiated plates were carefully washed with PBS, followed by the addition of 200 μl of stationary phase promastigotes in RPMI 1640 medium with 2% FBS. An MOI of 30:1 was used for all three Leishmania strains. The parasite‐treated plates were incubated for 24 h at 32°C (L. major) or 37°C (L. donovani) and 5% CO2 to promote infection of the macrophages. […] Blanks were represented by growth medium without cells, as well as parasite‐free THP‐1 cells. The treated plates were incubated for 72 h.
(§9) After incubation, the plates were gently washed three times with PBS to remove any remaining extracellular parasites. The wells were then treated with 20 μl of 0.05% sodium dodecyl sulfate in PBS for 30 s to lyse the host macrophages. Lysis was terminated by adding 180 μl promastigote growth medium with 10% FBS. To initiate the resazurin assay, 10 μl of resazurin solution (0.025% in PBS) was added to all wells and the plates were incubated for 24 h at 32°C (L. major) or 37°C (L. donovani) and 5% CO2. Absorbance measurements, calculations, and IC50 determinations were performed as described for the antipromastigote assay (Supinfo S1).

The subject of data set [4] is L. donovani strain 9515 amastigotes. The description is as above. The data set is classed as cell-based. The conditions noted are these: for IC50: L. donovani 9515, read-out: 9515 IC50 ± SD, Amastigote. How it is done:
as §7, §8, §9

Data set [5] relates to L. major strain IR‐173 amastigotes. The description is as above. Type of data set: cell-based. Particulars: for IC50: read-out: Antileishmanial activity, IC50 ± SD, Amastigote. On the procedure:
as §7, §8, §9

A further data set has as its system Vero cells. Put plainly: Basal cytotoxicity, resazurin assay. The conditions noted are these: read-out: Cytotoxicity, IC50 ± SD, Vero; Vero cells. On the procedure:
as §1, §2

Data set [6] can be described thus: Cytotoxicity on differentiated host THP-1 macrophages, resazurin assay. Type of data set: cell-based, human. Particulars: human, PMA-differentiated THP-1 macrophages, read-out: Cytotoxicity, IC50 ± SD, THP‐1. On the procedure:
Duplicate 96‐well plates (for respective anti‐amastigote and cytotoxicity assays) were seeded with 200 μl of a 2.5 × 10^5 cells/ml suspension treated with 25 ng/ml phorbol 12‐myristate 13‐acetate (PMA), followed by 48‐h incubation to promote differentiation into adherent macrophages.
Cytotoxicity of the compounds on the differentiated host THP-1 cells were also evaluated. As mentioned, duplicate plates of differentiated THP-1 cells were prepared during the anti-amastigote assay. These plates were incubated for 72 hours to differentiate, instead of replacing the growth medium with parasite-containing medium after 48 hours. […] Blanks were growth medium without cells. The treated plates were incubated for 72 hours, followed by the addition of 50 μL of resazurin solution (0.01% in PBS) to each well and 24-hour incubation.

The test system of data set [7] is L. donovani strain 9515 promastigotes. Put plainly: Antipromastigote assay (resazurin). The conditions noted are these: L. donovani 9515, read-out: 9515 IC50 ± SD, Promastigote. Type of data set: cell-based. On the procedure:
as §3, §4, §5, §6

Another data set has as its system A375 melanoma cells. Put plainly: Anticancer assay (resazurin). The data set is classed as cell-based, human. The conditions noted are these: n = 3; read-out: Anticancer activity, IC50 ± SD, A375. How it is done:
(§10) The anticancer activities of synthesized compounds were evaluated using a resazurin‐based assay (Czekanska, [2011]). Accordingly, a screening method similar to that of the cytotoxicity assay was used to screen for anticancer activity, using human melanoma (A375), promyelocytic leukemia (Clone 15 HL‐60), lung cancer (A549), and breast cancer (MCF7) cells. The culture and assay methods are provided in the Supinfo S1.
(§11) The potential anticancer activities of synthesized compounds were screened using the resazurin assay. ^5 Breast adenocarcinoma (MCF7, ATCC® HTB-22™) and human melanoma (A375, ATCC® CRL-1619™) cells were cultured in Hyclone Dulbecco's modified Eagle’s medium with high glucose (Separations) supplemented with 10 % fetal bovine serum (FBS) (Thermofisher Scientific) and 1 % L-glutamine, penicillin-streptomycin and non-essential amino acids (Lonza). Human lung carcinoma (A549, ATCC®, CCL-185™) cells were cultured in Ham’s F12K medium supplemented with 10% FBS and 1% L-glutamine, penicillin-streptomycin and non-essential amino acids. Human promyelocytic leukemia (Clone 15 HL-60, ATCC® CRL-1946™) cells were cultured in RPMI-1640 medium (Sigma Aldrich) supplemented with 10% FBS and 1% penicillin-streptomycin. The cell lines were maintained in a humidified atmosphere at 37 °C and 5% CO2.
(§12) For the resazurin assay, 96 well plates were prepared with 100 μL of 100 000 cells/mL MCF7 cell suspension, 100 μL of 50 000 cells/mL A375 cell suspension, 100 μL of 25 000 cells/mL A549 cell suspension, or 50 μL of 50 000 cells/mL HL-60 cell suspension. The MCF7, A375 and A549 cell plates were incubated for 24 hours to allow adherence of the cells to the plate surface, after which the growth medium is replaced with 100 μL medium containing compounds. […] The cell lines were treated with: (i) parthenolide (Sigma Aldrich) (positive control); (ii) growth medium and solvent (negative control to compensate for possible solvent effects); (iii) growth medium and experimental compound solutions. […] Blanks contained growth medium without cells. The treated plates were incubated for 48 hours.
(§13) To initiate the resazurin assay, 50 μL of sterile-filtered resazurin sodium salt (Sigma Aldrich) solution (0.01 % in PBS) was added and the plates incubated for 2 hours (MCF7, A375 and A549 cells) or 24 hours (HL-60 cells). Absorbance was measured at 570 and 600 nm using the Thermofisher Scientific GO Multiscan plate reader. Data analysis was performed for each biological replicate using SkanIt 4.0 Research Edition software. Further data analysis, calculations and IC50 determinations were identical to that of the antileishmanial and cytotoxicity assays.
(§14) For the final IC50 of each compound, the mean IC50 of the biological replicates were calculated with standard deviation (SD).

Data set [8] relates to Clone 15 HL‐60 promyelocytic leukemia cells. Put plainly: Anticancer assay (resazurin). The data set is classed as cell-based, human. Particulars: n = 3; read-out: Anticancer activity, IC50 ± SD, Clone 15 HL‐60. How it is done:
as §10, §11, §12, §13, §14

`NNS(=O)(=O)c1cccc2c1OCCO2` [1l, 2,3-Dihydrobenzo[b][1,4]dioxine-5-sulfonohydrazide]: the melting point fell in the range of 101 to 103 °C.

`C[C@@H]1[C@H](O)[C@@H](C)/C=C/C=C/C=C/C=C/C=C/C=C/C=C/[C@H](O[C@@H]2O[C@H](C)[C@@H](O)[C@H](N)[C@@H]2O)C[C@@H]2O[C@](O)(C[C@@H](O)C[C@@H](O)[C@H](O)CC[C@@H](O)C[C@@H](O)CC(=O)O[C@H]1C)C[C@H](O)[C@H]2C(=O)O` [AMB, Amphotericin B, reference compound]: the IC50 in the data set “in vitro” is 57800 ± 3220 nM; in [1] (Leishmania donovani) it was 20 nM; in [2] (Leishmania major), 30 ± 6 nM; in data set [3] (Leishmania donovani, THP-1) it was 40 nM; in [4] (Leishmania donovani, THP-1), 50 nM; in data set [5] (Leishmania major, THP-1, L. major IR‐173), 30 nM.

Turning to `CC[C@H]1CN2CCc3cc(OC)c(OC)cc3[C@@H]2C[C@@H]1C[C@H]1NCCc2cc(OC)c(OC)cc21` [EM, emetine, reference compound], in the data set with Vero cells, the IC50 turned out to be 80 ± 9 nM.

With `NC(=O)N/N=C/c1ccc([N+](=O)[O-])o1` [NFZ, nitrofurazone, reference compound], the IC50 in “in vitro” (Vero cells (kidney epithelial)) was more than 100000 nM; in [1] (Leishmania donovani) it was 6540 ± 930 nM; in data set [7] (Leishmania donovani) it was 1850 ± 140 nM; in [2] (Leishmania major) it was 1850 ± 60 nM; in data set [3] (Leishmania donovani, THP-1) it was 2500 ± 400 nM. Also, in [6], the IC50 at 72 h is more than 100000 nM. Besides, the “Selectivity index SI4” value in data set [3] (L. donovani 1S: IC50 THP‐1/IC50 amastigote) is on record as more than 40. The “Selectivity index SI3” value in data set [3] (L. donovani 1S: IC50 Vero/IC50 amastigote) was more than 40. In data set [3] (L. donovani 1S: IC50 promastigote/IC50 amastigote), the “Specificity index SpI2” value was 2.62. Moreover, the “Selectivity index SI6” value in data set [4] (L. donovani 9515: IC50 THP‐1/IC50 amastigote) is given as more than 20. Moreover, the “Selectivity index SI5” value in data set [4] (L. donovani 9515: IC50 Vero/IC50 amastigote) is recorded as more than 20. For the same molecule, the “Specificity index SpI3” value in data set [4] (L. donovani 9515: IC50 promastigote/IC50 amastigote) turned out to be 0.37. Moreover, in [5] (L. major IR‐173: IC50 promastigote/IC50 amastigote), the “Specificity index SpI1” value came to 0.32.

“(E)-4-Fluoro-N'-([5-nitrofuran-2-yl]methylene)-(1,1'-biphenyl)-4-sulfonohydrazide [2i]”: the IC50 in the data set with Vero cells is 29200 ± 5410 nM; in data set [1], 9380 ± 820 nM; in [7] it was more than 10000 nM; in [2], more than 10000 nM; in [3] it was more than 10000 nM; in [4], more than 10000 nM. Moreover, the IC50 (in data set [5] (L. major IR‐173); in the data set on A375 melanoma cells; in data set [8]) was more than 10000 nM in each case.

Values taken from PMC9546217, “Exploring novel nitrofuranyl sulfonohydrazides as anti‐Leishmania and anti‐cancer agents: Synthesis, in vitro efficacy and hit identification” (Chemical Biology & Drug Design, 2022).
